From patent US7897611B2, “Pharmaceutical compositions and methods for relieving pain and treating central nervous system disorders” (Targacept, Inc., priority 2003, dated 2011)

How the values were obtained:
mice = experiment: Hot plate test in mice (nociceptive reaction latency); assay type: in vivo; settings: for Reaction Latency: hot plate 52°C, cutoff 30 seconds, mean ± SEM; for % variation of reaction latency: vs saline; for increase of nociceptive reaction latency vs vehicle controls: 1.0 mg/kg oral; for increase of nociceptive reaction latency vs vehicle-control: 60 mg/kg oral
Protocol: The compounds of Example 1 (administered as the dihydrochloride salt of a 3:1 mixture of 3-(3-pyridinyl)-6-azabicyclo[3.2.1]oct-2-ene and 3-(3-pyridinyl)-6-azabicyclo[3.2.1]oct-3-ene) were evaluated in this Example using a “hot plate” test in mice. Briefly, the compounds of Example 1 (0.03, 0.1 and 0.3 mg free base/kg) were subcutaneously administered five minutes before the hot plate test. Morphine (10 mg/kg) was subcutaneously administered at 15 minutes before the test. Each mouse was placed on a metallic hot plate maintained at 52±0.2° C. The nociceptive reaction latency, characterized by licking reflex of the forepaws or by jumping off the hot plate, was recorded. The cutoff was set to 30 seconds.
The time course of the analgesic effect of the compounds of Example 1 (0.1, 0.3 and 1.0 mg free base/kg) was also assessed using the hot plate test following oral administration. Each dose of the compounds was administered to separate groups of animals at either 5, 15, 30 or 60 minutes prior to hot plate assessment. Morphine (60 mg/kg) and vehicle were also orally administered to separate groups of animals either 5, 15, 30, or 60 minutes before the test. Each mouse was placed on a metallic hot plate maintained at 52±0.2° C. The nociceptive reaction latency, characterized by licking reflex of the forepaws or by jumping off the hot plate, was recorded. The cutoff was set to 30 seconds.

rats = experiment: Rat model of peripheral mononeuropathy (Bennett Model), paw pressure test; assay type: in vivo; settings: for % Variation of nociceptive threshold, injured paw, vs vehicle-treated group / Nociceptive threshold, injured paw: Bennett model; for Nociceptive threshold, injured paw: paw pressure, mean ± SEM
Protocol: A rat model of peripheral mononeuropathy (Bennett Model) was also used to evaluate the antihyperalgesic properties of the compounds.
Briefly, peripheral mononeuropathy was induced by loose ligation of the sciatic nerve in anaesthetized rats (pentobarbital; 45 mg/kg by intraperitoneal route). Fourteen days later, the nociceptive threshold was evaluated using a mechanical nociceptive stimulation (paw pressure test). An increasing pressure was applied onto the hindpaw of the animal until the nociceptive reaction (vocalization or paw withdrawal) was reached. The pain threshold (grams of contact pressure) was measured in hindpaws, both ipsilateral (injured side) and contralateral (non-injured side) to the site of sciatic ligation injury, at 10 minutes after the oral treatment for the compounds (1 mg/kg) and 60 minutes after dosing for morphine (60 mg/kg) and vehicle.
The results were expressed as a) the nociceptive threshold (mean±SEM) in grams of contact pressure for the injured paw and for the non-injured paw in the vehicle-treated group, and b) the percentage of variation of the nociceptive threshold calculated from the mean value of the vehicle-treated group.

[1] = hot plate, 15 minutes after dosing
[2] = 1 mg/kg oral, 10 minutes after treatment
[3] = 60 mg/kg oral, 60 minutes after dosing

Molecule: C1=C(c2cccnc2)CC2CNCC1C2.Cl.Cl (stereo not drawn)
- melting point: 219 to 221 °C

Molecule: C1=C(c2cccnc2)C2CNCC1C2.Cl.Cl (stereo not drawn)
- melting point: 192 to 195 °C

Molecule: 3-(3-pyridinyl)-6-azabicyclo[3.2.1]oct-2-ene dihydrochloride and 3-(3-pyridinyl)-6-azabicyclo[3.2.1]oct-3-ene dihydrochloride [Example 1]
- Reaction Latency (mice; 0.03 mg free base/kg subcutaneous, five minutes before the test): 19.3 ± 2.8 s
- Reaction Latency (mice; 0.1 mg free base/kg subcutaneous, five minutes before the test): 18.8 ± 2.2 s
- Reaction Latency (mice; 0.3 mg free base/kg subcutaneous, five minutes before the test): 28.2 ± 1.8 s
- % variation of reaction latency (mice; hot plate, 0.03 mg/kg subcutaneous, five minutes before the test): 72%
- % variation of reaction latency (mice; hot plate, 0.1 mg/kg subcutaneous, five minutes before the test): 68%
- % variation of reaction latency (mice; hot plate, 0.3 mg/kg subcutaneous, five minutes before the test): 152%
- increase of nociceptive reaction latency vs vehicle controls (mice; hot plate, 5 minutes after dosing): 82%
- increase of nociceptive reaction latency vs vehicle controls (mice; [1]): 97%
- effect on nociceptive threshold vs vehicle-treated group (mice; hot plate, lower oral doses (0.1 and 0.3 mg free base/kg), data not shown): failed to modify the nociceptive threshold
- behavioral side-effects following dosing (rats; 1 mg/kg oral): No behavioral side-effects were observed
- % Variation of nociceptive threshold, injured paw, vs vehicle-treated group (rats; [2]): 20%
- Nociceptive threshold, injured paw (rats; [2]): 132.0 ± 9.0 g

Molecule: CN1CC[C@]23c4c5ccc(O)c4O[C@H]2[C@@H](O)C=C[C@H]3[C@H]1C5 [Morphine, reference compound]
- Reaction Latency (mice; 10 mg/kg subcutaneous, 15 minutes before the test): 29.4 ± 0.5 s
- % variation of reaction latency (mice; hot plate, 10 mg/kg subcutaneous, 15 minutes before the test): 163%
- increase of nociceptive reaction latency vs vehicle-control (mice; [1]): 69%
- increase of nociceptive reaction latency vs vehicle-control (mice; hot plate, 30 minutes after dosing): 47%
- increase of nociceptive reaction latency vs vehicle-control (mice; hot plate, 60 minutes after dosing): 37%
- % Variation of nociceptive threshold, injured paw, vs vehicle-treated group (rats; [3]): 144%
- Nociceptive threshold, injured paw (rats; [3]): 268.0 ± 18.9 g
